# Reference: patent publication US20210378193A1, “HAPLOID EMBRYOGENESIS” (STICHTING WAGENINGEN RESEARCH, priority 2013, published 2021)
# Columns and labels:
# [1] = tested on: Capsicum annuum microspore cultures; assay: Capsicum annuum microspore culture, embryogenic microspores and embryos per bud; assay type: cell-based; details: TSA during the first 20 hours
# Experimental: Microspore cultures were performed accordingto Kim M, Jang 1-C, Kim J-A, Park E-J, Yoon M, Lee Y (2008) “Embryogenesis and plant regeneration of hot pepper (Capsicum annuum L.) through isolated microspore culture”: Plant Cell Rep 27 (3):425-434. Flower buds containing vacuolate microspores were selected according to Parra-Vega V, Gonzalez-Garcia B, Segui-Simarro J M (2013) “Morphological markers to correlate bud and anther development with microsporogenesis and microgametogenesis in pepper (Capsicum annuum L.)”: Acta Physiol Plant 35 (2):627-633. Except for “Control” and “DMSO,” the microspores were exposed to TSA (diluted in DMSO) during the first 20 hours of culture.
# Cultures were performed according to Kim M, Jang 1-C, Kim J-A, Park E-J, Yoon M, Lee Y (2008) “Embryogenesis and plant regeneration of hot pepper (Capsicum annuum L.) through isolated microspore culture”; Plant Cell Rep 27 (3):425-434. Flower buds containing […] microspores were selected according to Parra-Vega V, Gonzalez-Garcia B, Segui-Simarro JM (2013) “Morphological markers to correlate bud and anther development with microsporogenesis and microgametogenesis in pepper (Capsicum annuum L.)”: Acta Physiol Plant 35 (2):627-633. Except for “Control” and “DMSO,” the microspores were exposed to TSA (diluted in DMSO) during the first 20 hours of culture.
# [2] = tested on: B. napus microspore culture; assay: embryo yield in B. napus microspore culture; assay type: cell-based, Brassica napus
# Experimental: Brassica napus L. DH12075 was used as a donor plant for microspore embryo culture. The B. napus plant growth and microspore isolation procedures were performed as described in Custers, J. B. M. (2003) “Microspore culture in rapeseed (Brassica napus L.)” in Doubled haploid production in crop plants: a manual, M. Maluszynski, K. J. Kasha, B. P. Forster, and I. Szarejko, eds (Dordrecht: Kluwer Academic Publishers), pp. 185-193. Flower buds for microspore culture were grouped by size (measured from the tip of the flower bud to the bottom of the sepal), ranging from 3.0 to 3.5 mm for DH4079 and from 2.6 to 4.0 mm for DH12075. The microspores were isolated and cultured in NLN-13 medium (see Lichter, R. (1982) […]. For induction of embryogenesis, microspores were cultured in the dark at 33° C. for 20 hours and subsequently transferred to 25° C. Non-induced microspore cultures were cultured continuously at 25° C. or 18° C. Trichostatin A (TSA, Sigma-Aldrich) was prepared in DMSO. Freshly isolated microspores were inoculated in a medium containing TSA or the same volume of DMSO as a control and cultured for 20 hours at the temperature indicated for each experiment. After this period, the cultures were centrifuged at 200 g for 3 min, resuspended in fresh NLN-13 medium without TSA, and transferred to 25° C.
# The developmental fate of heat-stressed control cultures and cultures exposed to both heat-stress and TSA was followed by examining older cultures in more detail. […] Heat-stressed microspores and pollen were treated with a range of TSA concentrations, and the cultures examined after five and 15 days using DAPI staining to characterize the different multicellular structures that developed.
# Microspores and immature pollen from different bud sizes were cultured in the presence of different concentrations of TSA compared with the equivalent volume of DMSO (control) at three temperatures: A-D=33° C., D-F=25° C., G-H=18° C. For each treatment, the samples are ranked from left to right along the z-axis according to the developmental stage of the microspores and pollen. […] The microspores and pollen were categorized as follows: mid-uninucleate microspore (white bars), late-uninucleate microspore (grey bars), and binucleate pollen (black bars) stages. […] The percentage of cells that divided gametopyhytically or sporophytically after five days of microspore culture at B=33° C., E=25° C., H=18° C. […] Dead microspores and pollen were not counted. […]
# [3] = tested on: Arabidopsis immature male gametophytes; assay: Arabidopsis anther culture, sporophytic division of immature male gametophytes; assay type: cell-based; details: Col0 anthers, 25° C., 0.5 μM TSA, five days; never observed without TSA
# Experimental: Arabidopsis flower buds at stage 11 were collected for anther culture. Flower buds were surface sterilized in 2% bleach for 10 minutes, then rinsed three times in distilled water. The anthers (without filament) were placed in a liquid NLN-13 medium containing 0.5 μM TSA or the same volume of DMSO and then cut in half transversely in the medium to release the microspores. The cultures were placed at 25° C. for 20 hours in the dark. The medium was then replaced by fresh NLN-13 medium by pipetting gently, and the cultures incubated at 25° C. for an additional four days. Free and loosely attached microspores were collected and stained with DAPI. Arabidopsis hda T-DNA insertion lines were obtained from Nottingham Arabidopsis Stock Centre. At least 300 microspores per sample were counted.
# Multicellular structures that resemble the Type II and IV structures seen in Brassica microspore culture are produced when stage 11 Arabidopsis anthers are cultured at 25° C. with 0.5 μM TSA. […] TSA induces embryogenic cell divisions in Arabidopsis immature male gametophytes. Panels show: (A)=DAPI stained anther in TSA-treated culture showing multicellular, sporophytic structures derived from immature male gametophytes (arrow). […] (B)=cleared anther from a control culture showing lack of sporophytic cell proliferation. […]
structure (smiles),measurement,setting,value
"CC(/C=C/C(=O)NO)=C\[C@@H](C)C(=O)c1ccc(N(C)C)cc1 [TSA, trichostatin A]",number of embryogenic cells compared to the control,[1]; 10-day-old cultures,enhances
same,embryo yield (embryos per bud) compared to the control,[1]; 45-day-old cultures,enhances
same,embryo production,"[2]; culture at 25° C. (no heat stress), practically none in controls",Up to 0.2%
same,development of histodifferentiated embryos,[2]; cultured at 18° C.,did not develop
same,embryo abundance relative to control cultures,"[2]; heat-stressed cultures, 0.05 μM TSA",up to five times more abundant than in control cultures
same,heart to cotyledon stage embryos,"[2]; heat-stressed cultures, 0.5 μM TSA, 15 days, control up to 0.3%",up to 0.05%
same,percentage of immature male gametophytes that divided sporophytically,[3],0-5%
